Measured values reported in ChEMBL document CHEMBL1147486 (Bioorg Med Chem Lett, 2004).

Legend:
Mus musculus = assay: Antiinflammatory activity, administered ip at 150 uM/kg dose was determined against carrageenan-induced mice paw edema model; assay type: functional; conditions: at 150 µmol/kg
Rattus norvegicus [1] = assay: Hypolipidemic action at 300 uM/kg was determined as reduction in low density lipoprotein in rat plasma; assay type: functional
Rattus norvegicus [2] = assay: Hypolipidemic action at 300 uM/kg was determined as reduction in total cholesterol in rat plasma; assay type: functional
Rattus norvegicus [3] = assay: Hypolipidemic action at 300 uM/kg was determined as reduction in triglycerides in rat plasma; assay type: functional
Rattus norvegicus [4] = assay: Body weight change after once daily administration at 1600 uM/kg for 4 days in rats was determined; assay type: functional
Rattus norvegicus [5] = assay: Mortality caused by the compound in rats after administration at 1600 uM/kg for 4 days; assay type: functional
Rattus norvegicus [6] = assay: Ulcerogenic activity administered once daily at 1600 uM/kg for 4 days was determined as no of animals showing perforating ulcers; assay type: functional
Rattus norvegicus [7] = assay: Body weight change after once daily administration at 200 uM/kg for 4 days in rats was determined; assay type: functional
Rattus norvegicus [8] = organism: Rattus norvegicus; assay: In vitro ability to inhibit the peroxidation of rat hepatic microsomal lipids; assay type: functional; conditions: Liver
Rattus norvegicus [9] = assay: Mortality caused by the compound in rats after administration at 200 uM/kg for 4 days; assay type: functional
Rattus norvegicus [10] = organism: Rattus norvegicus; assay: In vitro ability to inhibit the peroxidation of rat hepatic microsomal lipids at 1 mM concentration; assay type: functional; conditions: Liver
Rattus norvegicus [11] = assay: Ulcerogenic activity administered once daily at 200 uM/kg for 4 days was determined as no of animals showing perforating ulcers; assay type: functional
Rattus norvegicus [12] = assay: Hypolipidemic action at 500 uM/kg was determined as reduction in triglycerides in rat plasma; assay type: functional
Rattus norvegicus [13] = assay: Hypolipidemic action at 500 uM/kg was determined as reduction in low density lipoprotein in rat plasma; assay type: functional
Rattus norvegicus [14] = assay: Body weight change after once daily administration at 240 uM/kg for 4 days in rats was determined; assay type: functional
Rattus norvegicus [15] = assay: Mortality caused by the compound in rats after administration at 240 uM/kg for 4 days; assay type: functional
Rattus norvegicus [16] = assay: Ulcerogenic activity administered once daily at 240 uM/kg for 4 days was determined as no of animals showing perforating ulcers; assay type: functional
Rattus norvegicus [17] = assay: Hypolipidemic action at 500 uM/kg was determined as reduction in total cholesterol in rat plasma
Rattus norvegicus [18] = assay: Body weight change after once daily administration at 84 uM/kg for 4 days in rats was determined; assay type: functional
Rattus norvegicus [19] = assay: Mortality caused by the compound in rats after administration at 84 uM/kg for 4 days; assay type: functional
Rattus norvegicus [20] = assay: Ulcerogenic activity administered once daily at 84 uM/kg for 4 days was determined as no of animals showing perforating ulcers; assay type: functional
Rattus norvegicus [21] = assay: Body weight change after once daily administration for 4 days at 84 uM/kg in rats was determined; assay type: functional
Rattus norvegicus [22] = assay: Ulcerogenic activity administered once daily for 4 days at 84 uM/kg was determined as no of animals showing perforating ulcers; assay type: functional
Rattus norvegicus [23] = assay: Hypolipidemic action at 250 uM/kg was determined as reduction in low density lipoprotein in rat plasma; assay type: functional
Rattus norvegicus [24] = assay: Hypolipidemic action at 250 uM/kg was determined as reduction in total cholesterol in rat plasma; assay type: functional
Rattus norvegicus [25] = assay: Hypolipidemic action at 250 uM/kg was determined as reduction in triglycerides in rat plasma; assay type: functional
Rattus norvegicus [26] = assay: Body weight change after once daily administration for 4 days in rats was determined; assay type: functional
Rattus norvegicus [27] = assay: Mortality caused by the compound in rats after administration at 1200 uM/kg for 4 days; assay type: functional
Rattus norvegicus [28] = assay: Ulcerogenic activity administered once daily at 1200 uM/kg for 4 days was determined as no of animals showing perforating ulcers; assay type: functional
Rattus norvegicus [29] = assay: Body weight change after once daily administration at 760 uM/kg for 4 days in rats was determined; assay type: functional
Rattus norvegicus [30] = assay: Mortality caused by the compound in rats after administration at 760 uM/kg for 4 days; assay type: functional
Rattus norvegicus [31] = assay: Ulcerogenic activity administered once daily at 760 uM/kg for 4 days was determined as no of animals showing perforating ulcers; assay type: functional
Rattus norvegicus [32] = assay: Mortality caused by the compound in rats after administration at 1350 uM/kg for 4 days; assay type: functional
Rattus norvegicus [33] = assay: Ulcerogenic activity administered once daily at 1350 uM/kg for 4 days was determined as no of animals showing perforating ulcers; assay type: functional

Structure (SMILES)	Edema inhibition (Mus musculus)	Paw weight increase (Mus musculus)	Decrease (Rattus norvegicus [12])	Decrease (Rattus norvegicus [13])	Decrease (Rattus norvegicus [17])	also measured
CC(C)Cc1ccc(C(C)C(=O)O)cc1 (stereo not given) [IBUPROFEN]	35.6%	31.7%	–	–	–	Decrease (Rattus norvegicus [1]): 31.6%; Decrease (Rattus norvegicus [2]): 38.2%; Decrease (Rattus norvegicus [3]): 41.6%; Body weight change (Rattus norvegicus [4]): -12.7 g (100g of body weight)-1; Mortality (Rattus norvegicus [5]): 50%; Ulcerogenic activity (Rattus norvegicus [6]): 88%
CCOC(=O)[C@H](CS)NC(=O)C(C)c1cccc(C(=O)c2ccccc2)c1 (stereo not given in full)	29%	48%	–	–	–	Body weight change (Rattus norvegicus [7]): 0.3 g (100g of body weight)-1; IC50 (Rattus norvegicus [8]): 650 µM; Mortality (Rattus norvegicus [9]): 0%; inhibition (Rattus norvegicus [10]): 100%; Ulcerogenic activity (Rattus norvegicus [11]): 0%
CC(C(=O)O)c1cccc(C(=O)c2ccccc2)c1 (stereo not given) [KETOPROFEN]	–	35.9%	–	–	–	Body weight change (Rattus norvegicus [7]): -18.9 g (100g of body weight)-1; Mortality (Rattus norvegicus [9]): 50%; Ulcerogenic activity (Rattus norvegicus [11]): 83%
CCOC(=O)[C@H](CS)NC(=O)Cc1ccccc1Nc1c(Cl)cccc1Cl	59.3%	11.8%	31.6%	92.6%	54.7%	Body weight change (Rattus norvegicus [14]): 3.1 g (100g of body weight)-1; IC50 (Rattus norvegicus [8]): 27 µM; Mortality (Rattus norvegicus [15]): 0%; inhibition (Rattus norvegicus [10]): 100%; Ulcerogenic activity (Rattus norvegicus [16]): 0%
CCOC(=O)[C@@H](N)CS.O=C(O)c1ccccc1Nc1cccc(C(F)(F)F)c1	9%	61.9%	–	–	–	–
COc1ccc2c(c1)c(CC(=O)O)c(C)n2C(=O)c1ccc(Cl)cc1 [INDOMETHACIN]	41.6%	22.5%	78.6%	72.2%	74.4%	Body weight change (Rattus norvegicus [18]): -13 g (100g of body weight)-1; Mortality (Rattus norvegicus [19]): 50%; Ulcerogenic activity (Rattus norvegicus [20]): 80%
CCOC(=O)[C@H](CS)NC(=O)Cc1c(C)n(C(=O)c2ccc(Cl)cc2)c2ccc(OC)cc12	63.3%	14.1%	19.8%	60.5%	37%	Body weight change (Rattus norvegicus [21]): 3.4 g (100g of body weight)-1; IC50 (Rattus norvegicus [8]): 51 µM; Mortality (Rattus norvegicus [19]): 0%; inhibition (Rattus norvegicus [10]): 100%; Ulcerogenic activity (Rattus norvegicus [22]): 0%
CCOC(=O)[C@H](CS)NC(=O)C(C)c1ccc(CC(C)C)cc1 (stereo not given in full)	61.2%	19.1%	–	–	–	Decrease (Rattus norvegicus [23]): 68.7%; Decrease (Rattus norvegicus [24]): 48.1%; Decrease (Rattus norvegicus [25]): 27.5%; Body weight change (Rattus norvegicus [26]): 1 g (100g of body weight)-1; IC50 (Rattus norvegicus [8]): 38 µM; Mortality (Rattus norvegicus [5]): 0%; inhibition (Rattus norvegicus [10]): 100%; Ulcerogenic activity (Rattus norvegicus [6]): 0%
O=C(O)c1ccccc1Nc1cccc(C(F)(F)F)c1 [FLUFENAMIC ACID]	19%	55.4%	–	–	–	Body weight change (Rattus norvegicus [26]): -9.2 g (100g of body weight)-1; Mortality (Rattus norvegicus [27]): 50%; Ulcerogenic activity (Rattus norvegicus [28]): 50%
Cc1c(Cl)cccc1Nc1ccccc1C(=O)O [TOLFENAMIC ACID]	24%	27.6%	–	–	–	Body weight change (Rattus norvegicus [29]): -5.3 g (100g of body weight)-1; Mortality (Rattus norvegicus [30]): 50%; Ulcerogenic activity (Rattus norvegicus [31]): 50%
CCOC(=O)[C@@H](N)CS.COc1ccc2cc(C(C)C(=O)O)ccc2c1 (stereo not given)	38.1%	30.1%	–	–	–	–
CCOC(=O)[C@@H](N)CS.Cc1c(Cl)cccc1Nc1ccccc1C(=O)O	25.9%	25.5%	–	–	–	–
CCOC(=O)[C@@H](N)CS.O=C([O-])Cc1ccccc1Nc1c(Cl)cccc1Cl.[Na+]	27.7%	28.2%	–	–	–	–
CCOC(=O)[C@@H](N)CS.COc1ccc2c(c1)c(CC(=O)O)c(C)n2C(=O)c1ccc(Cl)cc1	32.8%	25.8%	–	–	–	–
COc1ccc2cc([C@H](C)C(=O)O)ccc2c1 [NAPROXEN]	11%	50.4%	25.5%	43.5%	53%	Body weight change (Rattus norvegicus [26]): -15.8 g (100g of body weight)-1; Mortality (Rattus norvegicus [32]): 50%; Ulcerogenic activity (Rattus norvegicus [33]): 100%
O=C([O-])Cc1ccccc1Nc1c(Cl)cccc1Cl.[Na+] [DICLOFENAC SODIUM]	37.1%	24.5%	96.1%	86.3%	87.4%	Ulcerogenic activity (Rattus norvegicus [16]): 75%
CCOC(=O)[C@@H](N)CS	24.9%	29.2%	–	–	–	–
CC(C(=O)O)c1cccc(C(=O)c2ccccc2)c1.CCOC(=O)[C@@H](N)CS (stereo not given)	39%	41.6%	–	–	–	–
CCOC(=O)[C@H](CS)NC(=O)C(C)c1ccc2cc(OC)ccc2c1 (stereo not given in full)	37.1%	35.6%	29.6%	46.8%	33.8%	Body weight change (Rattus norvegicus [26]): 9.2 g (100g of body weight)-1; IC50 (Rattus norvegicus [8]): 28 µM; Mortality (Rattus norvegicus [32]): 0%; inhibition (Rattus norvegicus [10]): 100%; Ulcerogenic activity (Rattus norvegicus [33]): 0%
